How the values were obtained:
bedstraw = test: Test B pre/postemergence bedstraw; type: in vivo, Galium aparine
Procedure, shortened: (§1)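 Herbicidal effect was estimated by eye on a ten-point control scale after plants spent twelve to sixteen days in a greenhouse following soil or foliar treatment. Foliar sprays targeted plants at one to four leaves; all doses were formulated in a non-phytotoxic solvent with surfactant.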

blackgrass = test: Test B pre/postemergence blackgrass; type: in vivo, Alopecurus myosuroides
Procedure, shortened: as §1

surinam grass = test: Test B pre/postemergence surinam grass; type: in vivo, Brachiaria decumbens
Procedure, shortened: as §1

cocklebur = test: Test B pre/postemergence cocklebur; type: in vivo, Xanthium strumarium; conditions: for Cocklebur plant response rating: scale of 0 to 10 where 0 is no effect and 10 is complete control
Procedure, shortened: as §1

corn = test: Test B pre/postemergence corn; type: in vivo, Zea mays; conditions: for Corn plant response rating: scale of 0 to 10 where 0 is no effect and 10 is complete control
Procedure, shortened: as §1

crabgrass = test: Test B pre/postemergence crabgrass; type: in vivo, Digitaria sanguinalis; conditions: for Crabgrass plant response rating: scale of 0 to 10 where 0 is no effect and 10 is complete control
Procedure, shortened: as §1

rape = test: Test B pre/postemergence rape; type: in vivo, Brassica napus; conditions: for Rape plant response rating: scale of 0 to 10 where 0 is no effect and 10 is complete control
Procedure, shortened: as §1

soybean = test: Test B pre/postemergence soybean; type: in vivo, Glycine max; conditions: for Soybean plant response rating: scale of 0 to 10 where 0 is no effect and 10 is complete control
Procedure, shortened: as §1

sugar beet = test: Test B pre/postemergence sugar beet; type: in vivo, Beta vulgaris; conditions: for Sugarbeets plant response rating: scale of 0 to 10 where 0 is no effect and 10 is complete control
Procedure, shortened: as §1

velvetleaf = test: Test B pre/postemergence velvetleaf; type: in vivo, Abutilon theophrasti; conditions: for Velvetleaf plant response rating: scale of 0 to 10 where 0 is no effect and 10 is complete control
Procedure, shortened: as §1

wheat = test: Test B pre/postemergence wheat; type: in vivo, Triticum aestivum; conditions: for Wheat plant response rating: scale of 0 to 10 where 0 is no effect and 10 is complete control
Procedure, shortened: as §1

wild oat = test: Test B pre/postemergence wild oat; type: in vivo, Avena fatua; conditions: for Wild oats plant response rating: scale of 0 to 10 where 0 is no effect and 10 is complete control
Procedure, shortened: as §1

purple nutsedge = test: Test B pre/postemergence purple nutsedge; type: in vivo, Cyperus rotundus; conditions: for Nutsedge plant response rating: scale of 0 to 10 where 0 is no effect and 10 is complete control
Procedure, shortened: as §1

rice = test: Test B flood test rice; type: in vivo, Oryza sativa
Procedure, shortened: (§2)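 Each value is a visual injury score relative to controls, with 10 meaning complete control and 0 no effect. Evaluation took place twelve to sixteen days after the 2-leaf-stage plants were treated and kept in the greenhouse.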

smallflower flatsedge = test: Test B flood test smallflower flatsedge; type: in vivo, Cyperus difformis
Procedure, shortened: as §2

duck salad = test: Test B flood test duck salad; type: in vivo, Heteranthera limosa
Procedure, shortened: as §2

bamyardgrass = test: Test B flood test barnyardgrass; type: in vivo, Echinochloa crus-galli
Procedure, shortened: as §2

[1] = Postemergence, Rate 125 g/ha, scale 0 to 10, 0 is no effect, 10 is complete control
[2] = Preemergence, Rate 62 g/ha, scale of 0 to 10 where 0 is no effect and 10 is complete control
[3] = Preemergence, Rate 250 g/ha, scale of 0 to 10 where 0 is no effect and 10 is complete control
[4] = Preemergence, Rate 500 g/ha, scale of 0 to 10 where 0 is no effect and 10 is complete control
[5] = Rate 62 g/ha, Postemergence, scale of 0 to 10 where 0 is no effect and 10 is complete control
[6] = Rate 250 g/ha, Postemergence, scale of 0 to 10 where 0 is no effect and 10 is complete control
[7] = Rate 500 g/ha, Postemergence, scale 0 to 10, 0 no effect, 10 complete control
[8] = Rate 62 g/ha, headed Pre-emergence (flood test species), scale 0 to 10 (0 no effect, 10 complete control)
[9] = Rate 125 g/ha, Pre-emergence, flood test species, scale 0 to 10 where 0 is no effect and 10 is complete control
[10] = Rate 250 g/ha, Pre-emergence, flood-test species, scale 0 to 10, 0 is no effect, 10 is complete control
[11] = Rate 500 g/ha, Pre-emergence, flood test species, scale 0 to 10 (0 no effect, 10 complete control)

## CC(C)N(C(=O)n1oc(=O)n(C2CCCCCC2)c1=O)c1ccc(Cl)cc1 [Compound 339]
bedstraw; [1]
  Plant response rating, Bedstraw: 2
bedstraw; [2]
  Bedstraw plant response rating: 0
bedstraw; Preemergence, Rate 125 g/ha
  Bedstraw plant response rating (0 to 10 scale): 0
bedstraw; [3]
  Bedstraw plant response rating: 0
bedstraw; [4]
  Bedstraw plant response rating: 0
bedstraw; [5]
  Bedstraw plant response rating: 0
bedstraw; [6]
  Plant response rating, Bedstraw: 7
bedstraw; [7]
  Plant response rating, Bedstraw: 8
blackgrass; [1]
  Plant response rating, Blackgrass: 0
blackgrass; [2]
  Blackgrass plant response rating: 0
blackgrass; Preemergence, Rate 125 g/ha
  Blackgrass plant response rating (0 to 10 scale): 0
blackgrass; [3]
  Blackgrass plant response rating: 2
blackgrass; [4]
  Blackgrass plant response rating: 3
blackgrass; [5]
  Blackgrass plant response rating: 0
blackgrass; [6]
  Plant response rating, Blackgrass: 0
blackgrass; [7]
  Plant response rating, Blackgrass: 2
Surinam grass; [1]
  Plant response rating, B. signalgrass: 0
Surinam grass; [2]
  B. signalgrass plant response rating: 0
Surinam grass; Preemergence, Rate 125 g/ha
  B. signalgrass plant response rating (0 to 10 scale, 0 is no effect, 10 is complete control): 0
Surinam grass; [3]
  B. signalgrass plant response rating: 0
Surinam grass; [4]
  B. signalgrass plant response rating: 0
Surinam grass; [5]
  B. signalgrass plant response rating: 0
Surinam grass; [6]
  Plant response rating, B. signalgrass: 0
Surinam grass; [7]
  Plant response rating, B. signalgrass: 0
cocklebur; [1]
  Plant response rating, Cocklebur: 0
cocklebur; Preemergence, Rate 62 g/ha
  Cocklebur plant response rating: 0
cocklebur; Preemergence, Rate 125 g/ha
  Cocklebur plant response rating (0 to 10 scale): 0
cocklebur; Preemergence, Rate 250 g/ha
  Cocklebur plant response rating: 0
cocklebur; Preemergence, Rate 500 g/ha
  Cocklebur plant response rating: 0
cocklebur; Rate 62 g/ha, Postemergence
  Cocklebur plant response rating: 0
cocklebur; [7]
  Plant response rating, Cocklebur: 0
corn; [1]
  Plant response rating, Corn: 0
corn; Preemergence, Rate 62 g/ha
  Corn plant response rating: 0
corn; Preemergence, Rate 125 g/ha
  Corn plant response rating (0 to 10 scale): 0
corn; Preemergence, Rate 250 g/ha
  Corn plant response rating: 0
corn; Preemergence, Rate 500 g/ha
  Corn plant response rating: 0
corn; Rate 62 g/ha, Postemergence
  Corn plant response rating: 0
corn; [7]
  Plant response rating, Corn: 0
crabgrass; [1]
  Plant response rating, Crabgrass: 0
crabgrass; Preemergence, Rate 62 g/ha
  Crabgrass plant response rating: 0
crabgrass; Preemergence, Rate 125 g/ha
  Crabgrass plant response rating (0 to 10 scale): 0
crabgrass; Preemergence, Rate 250 g/ha
  Crabgrass plant response rating: 2
crabgrass; Preemergence, Rate 500 g/ha
  Crabgrass plant response rating: 5
crabgrass; Rate 62 g/ha, Postemergence
  Crabgrass plant response rating: 0
crabgrass; [7]
  Plant response rating, Crabgrass: 2
rape; [1]
  Plant response rating, Rape: 1
rape; Preemergence, Rate 62 g/ha
  Rape plant response rating: 0
rape; Preemergence, Rate 125 g/ha
  Rape plant response rating (0 to 10 scale): 0
rape; Preemergence, Rate 250 g/ha
  Rape plant response rating: 0
rape; Preemergence, Rate 500 g/ha
  Rape plant response rating: 0
rape; Rate 62 g/ha, Postemergence
  Rape plant response rating: 0
rape; [7]
  Plant response rating, Rape: 5
soybean; [1]
  Plant response rating, Soybean: 1
soybean; Preemergence, Rate 62 g/ha
  Soybean plant response rating: 0
soybean; Preemergence, Rate 125 g/ha
  Soybean plant response rating (0 to 10 scale): 0
soybean; Preemergence, Rate 250 g/ha
  Soybean plant response rating: 0
soybean; Preemergence, Rate 500 g/ha
  Soybean plant response rating: 0
soybean; Rate 62 g/ha, Postemergence
  Soybean plant response rating: 1
soybean; [7]
  Plant response rating, Soybean: 4
Sugar beet; [1]
  Plant response rating, Sugarbeets: 0
Sugar beet; Preemergence, Rate 62 g/ha
  Sugarbeets plant response rating: 0
Sugar beet; Preemergence, Rate 125 g/ha
  Sugarbeets plant response rating (0 to 10 scale): 0
Sugar beet; Preemergence, Rate 250 g/ha
  Sugarbeets plant response rating: 0
Sugar beet; Preemergence, Rate 500 g/ha
  Sugarbeets plant response rating: 0
Sugar beet; Rate 62 g/ha, Postemergence
  Sugarbeets plant response rating: 0
Sugar beet; [7]
  Plant response rating, Sugarbeets: 0
velvetleaf; [1]
  Plant response rating, Velvetleaf: 0
velvetleaf; Preemergence, Rate 62 g/ha
  Velvetleaf plant response rating: 0
velvetleaf; Preemergence, Rate 125 g/ha
  Velvetleaf plant response rating (0 to 10 scale): 0
velvetleaf; Preemergence, Rate 250 g/ha
  Velvetleaf plant response rating: 0
velvetleaf; Preemergence, Rate 500 g/ha
  Velvetleaf plant response rating: 0
velvetleaf; Rate 62 g/ha, Postemergence
  Velvetleaf plant response rating: 0
velvetleaf; [7]
  Plant response rating, Velvetleaf: 0
wheat; [1]
  Plant response rating, Wheat: 0
wheat; Preemergence, Rate 62 g/ha
  Wheat plant response rating: 0
wheat; Preemergence, Rate 125 g/ha
  Wheat plant response rating (0 to 10 scale): 0
wheat; Preemergence, Rate 250 g/ha
  Wheat plant response rating: 0
wheat; Preemergence, Rate 500 g/ha
  Wheat plant response rating: 0
wheat; Rate 62 g/ha, Postemergence
  Wheat plant response rating: 0
wheat; [7]
  Plant response rating, Wheat: 0
Wild oat; [1]
  Plant response rating, Wild oats: 0
Wild oat; Preemergence, Rate 62 g/ha
  Wild oats plant response rating: 0
Wild oat; Preemergence, Rate 125 g/ha
  Wild oats plant response rating (0 to 10 scale): 0
Wild oat; Preemergence, Rate 250 g/ha
  Wild oats plant response rating: 0
Wild oat; Preemergence, Rate 500 g/ha
  Wild oats plant response rating: 0
Wild oat; Rate 62 g/ha, Postemergence
  Wild oats plant response rating: 0
Wild oat; [7]
  Plant response rating, Wild oats: 0
Purple nutsedge; [1]
  Plant response rating, Nutsedge: 0
Purple nutsedge; Preemergence, Rate 62 g/ha
  Nutsedge plant response rating: 0
Purple nutsedge; Preemergence, Rate 125 g/ha
  Nutsedge plant response rating (0 to 10 scale): 0
Purple nutsedge; Preemergence, Rate 250 g/ha
  Nutsedge plant response rating: 0
Purple nutsedge; Preemergence, Rate 500 g/ha
  Nutsedge plant response rating: 0
Purple nutsedge; Rate 62 g/ha, Postemergence
  Nutsedge plant response rating: 0
Purple nutsedge; [7]
  Plant response rating, Nutsedge: 0
rice; [8]
  Rice plant response rating: 0
rice; [9]
  Rice plant response rating: 0
rice; [10]
  Rice plant response rating: 0
rice; [11]
  Rice plant response rating: 1
Smallflower flatsedge; [8]
  S. Flatsedge plant response rating: 0
Smallflower flatsedge; [9]
  S. Flatsedge plant response rating: 0
Smallflower flatsedge; [10]
  S. Flatsedge plant response rating: 0
Smallflower flatsedge; [11]
  S. Flatsedge plant response rating: 1
Duck salad; [8]
  Ducksalad plant response rating: 0
Duck salad; [9]
  Ducksalad plant response rating: 0
Duck salad; [10]
  Ducksalad plant response rating: 0
Duck salad; [11]
  Ducksalad plant response rating: 3
bamyardgrass; [8]
  Barnyardgrass plant response rating: 2
bamyardgrass; [9]
  Barnyardgrass plant response rating: 8
bamyardgrass; [10]
  Barnyardgrass plant response rating: 9
bamyardgrass; [11]
  Barnyardgrass plant response rating: 9
